# Source: patent publication US10189809B2, “SGC stimulators” (Ironwood Pharmaceuticals, Inc., priority 2010, dated 2019)
# Where two headings read alike, the source gives them in different places.
# Tests used:
# [1] = biological target: soluble guanylate cyclase (sGC) (Homo sapiens (Human), UniProt Q02108+Q02153); test: sGC-HEK-cGMP assay run with SNP incubation (HEK WC assay); type: cell-based
# Summary of the method: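 EC50 values derive from concentration-response curves of intracellular cGMP in HEK293 cells, which express sGC endogenously. Compound and sodium nitroprusside were co-incubated 10 min at 37 °C after a 15-min 0.5 mM IBMX step, with 0.1 M HCl lysis and 1% DMSO vehicle.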
# [2] = biological target: T1, Human soluble guanylate cyclase enzyme (hsGC) (Homo sapiens (Human), UniProt Q02108+Q02153); test: Purified human sGC enzyme activity assay; type: biochemical; conditions: for sGC Enzyme (specific activity at 30 μM) / sGC Enzyme (fold increase at 30 μM without SNP) / sGC Enzyme (fold increase at 30 μM): 30 μM compound
# T1 sequence (Q02153 whole entry): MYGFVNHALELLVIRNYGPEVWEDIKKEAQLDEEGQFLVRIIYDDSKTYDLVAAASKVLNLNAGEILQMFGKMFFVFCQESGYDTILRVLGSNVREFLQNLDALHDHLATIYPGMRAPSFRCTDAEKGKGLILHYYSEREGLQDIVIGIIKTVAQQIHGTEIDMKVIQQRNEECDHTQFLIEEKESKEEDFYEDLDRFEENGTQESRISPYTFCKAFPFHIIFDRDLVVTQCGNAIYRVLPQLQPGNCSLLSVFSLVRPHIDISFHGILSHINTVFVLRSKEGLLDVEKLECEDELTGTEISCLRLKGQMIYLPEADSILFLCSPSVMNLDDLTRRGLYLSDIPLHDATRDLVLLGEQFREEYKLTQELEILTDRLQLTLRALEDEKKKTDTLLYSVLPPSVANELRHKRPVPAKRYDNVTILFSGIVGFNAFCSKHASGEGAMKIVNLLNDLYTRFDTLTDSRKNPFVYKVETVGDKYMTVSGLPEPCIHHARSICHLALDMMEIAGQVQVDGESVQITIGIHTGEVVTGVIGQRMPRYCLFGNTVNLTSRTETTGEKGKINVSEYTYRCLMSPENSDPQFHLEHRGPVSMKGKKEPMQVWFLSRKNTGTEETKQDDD
# T1 sequence (Q02108 whole entry): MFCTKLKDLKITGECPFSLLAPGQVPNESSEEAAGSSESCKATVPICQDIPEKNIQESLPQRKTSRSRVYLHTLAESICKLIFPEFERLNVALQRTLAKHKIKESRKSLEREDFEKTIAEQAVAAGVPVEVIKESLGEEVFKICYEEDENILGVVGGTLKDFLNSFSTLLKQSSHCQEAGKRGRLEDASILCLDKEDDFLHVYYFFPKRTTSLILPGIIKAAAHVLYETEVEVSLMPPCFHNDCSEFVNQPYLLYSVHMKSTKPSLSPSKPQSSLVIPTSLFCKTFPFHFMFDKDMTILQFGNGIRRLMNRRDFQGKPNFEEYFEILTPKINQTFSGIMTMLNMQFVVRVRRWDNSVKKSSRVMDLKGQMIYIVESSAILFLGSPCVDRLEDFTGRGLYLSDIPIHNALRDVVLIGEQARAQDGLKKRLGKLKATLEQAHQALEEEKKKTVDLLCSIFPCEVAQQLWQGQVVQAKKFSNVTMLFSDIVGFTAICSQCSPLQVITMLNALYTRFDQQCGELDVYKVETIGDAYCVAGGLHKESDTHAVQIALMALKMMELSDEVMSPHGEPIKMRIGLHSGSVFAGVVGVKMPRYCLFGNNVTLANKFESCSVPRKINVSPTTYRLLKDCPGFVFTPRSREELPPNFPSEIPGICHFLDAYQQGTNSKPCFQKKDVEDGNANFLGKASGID
# Summary of the method: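 Values are fold-change of sGC specific activity, nmoles cGMP per mg enzyme per min, relative to DMSO controls. Reactions: 5 ng human enzyme, 300 μM GTP, 1 mM IBMX, 2 mM MgCl2/DTT, 0.1 M Tris pH 8.0, compound 10 or 30 μM final, 37° C for 30 minutes, methanol quench. cGMP read against a 0.078-10 μM final standard curve.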
# [3] = biological target: T1, Human soluble guanylate cyclase enzyme (hsGC); test: Purified human sGC enzyme synergy assay in the presence of 1 μM sodium nitroprusside (SNP); type: biochemical; conditions: for sGC Enzyme (fold increase at 10 μM with SNP): 10 μM compound; for sGC Enzyme (fold increase at 30 μM with SNP): 30 μM compound
# Method: Human soluble guanylate cyclase enzyme (hsGC) obtained from Enzo Inc. (P/N: ALX-201-177) was used to evaluate the activity of test compounds. The assay reactions contained 0.1 M Tris (pH 8.0), 0.5 mg/mL BSA (pH 8.0), 2 mM DTT, 2 mM MgCl2, 300 μM GTP, 1 mM 3-isobutyl-1-methylxanthine (IBMX) and 5 ng human soluble guanylate cyclase enzyme. Test compounds in DMSO were then added (2 μL, 10 or 30 μM final concentration) and incubated (200 μL, 96-well plate format) at 37° C. for 30 minutes. The controls were carried out using 2 μL DMSO. After the 30 minute incubation, the reaction was stopped with the addition of 200 μL of cold methanol. The plate was then centrifuged at 3,200 rpm for 10 minutes at room temperature. Supernatants (200 μL) were collected and transferred to a new 96 well plate for analysis.
# An 8 point cGMP (Sigma-Aldrich P/N: G6129) standard curve was prepared in assay buffer ranging from 0.156-20 μM. Samples for the cGMP standard curve were then diluted with an equal volume of methanol resulting in final cGMP concentrations of 0.078-10 μM.
# The cGMP standard curve was generated using GraphPad Prism Software.
# Calculations: Specific Activity was determined by the amount of cGMP formed (nmoles) per mg of sGC per min. Enzyme “fold-change” was calculated by dividing Specific Activity for test compounds by Specific Activity of DMSO controls.
# Enzyme assays were performed as described above, but was done in the presence of 1 μM sodium nitroprusside (SNP).
# [4] = read-out: HEK WC Assay (% Emax at 10 uM/with 10 uM SNP)
# [5] = read-out: HEK WC Assay (% Emax at 30 uM/with 10 uM SNP)
# [6] = read-out: HEK WC Assay (% Emax at 10 μM/with 10 uM SNP)
# [7] = read-out: HEK WC Assay (% Emax at 30 μM/with 10 uM SNP)
# Sequence of soluble guanylate cyclase (sGC) (Q02153 whole entry): as the sequence (Q02153 whole entry) above
# Sequence of soluble guanylate cyclase (sGC) (Q02108 whole entry): as the sequence (Q02108 whole entry) above
"Emax at 10 µM [1, 4] [%]","Emax at 30 µM [1, 5] [%]",sGC Enzyme (specific activity at 10 μM) ([2]; 10 μM compound),sGC Enzyme (fold increase at 10 μM without SNP) ([2]; 10 μM compound),sGC Enzyme (specific activity at 30 μM) [2],sGC Enzyme (fold increase at 30 μM without SNP) [2],sGC Enzyme (fold increase at 10 μM with SNP) ([3]; with 1 μM SNP),sGC Enzyme (fold increase at 30 μM with SNP) ([3]; with 1 μM SNP),"Emax at 10 µM [1, 6] [%]","Emax at 30 µM [1, 7] [%]","sGC Enzyme (fold increase at 10 μM) ([2]; 10 μM compound, without the addition of SNP)",sGC Enzyme (fold increase at 30 μM) ([2]; without the addition of SNP),sGC Enzyme (fold increase at 10 μM with SNP) ([3]; with the addition of SNP),sGC Enzyme (fold increase at 30 μM with SNP) ([3]; with the addition of SNP),Structure (SMILES)
0 to 10,0 to 10,B (B = 50 to <100),A (A = no increase to <2 fold increase),B (B = 50 to <100),A (A = no increase to <2 fold increase),A (A = no increase to <2 fold increase),A (A = no increase to <2 fold increase),,,,,,,Cc1ccc(-c2cc(-c3ccccn3)nn2Cc2ccccc2F)nc1 [Compound I-56]
0 to 10,0 to 10,D (D = 200 to <500),A (A = no increase to <2 fold increase),D (D = 200 to <500),B (B = 2 to <5 fold increase),B (B = 2 to <5 fold increase),B (B = 2 to <5 fold increase),,,,,,,CC(C)c1cc(-c2ccccn2)nn1Cc1ccccc1F [Compound I-47]
,,,,,,,,0 to 10,0 to 10,A (A = no increase to <2 fold increase),A (A = no increase to <2 fold increase),A (A = no increase to <2 fold increase),A (A = no increase to <2 fold increase),"Oc1cccc(-c2cc(-c3ccccn3)nn2Cc2ccccc2F)n1 [Compound I-79, 6-(1-(2-fluorobenzyl)-3-(pyridin-2-yl)-1H-pyrazol-5-yl)pyridin-2-ol]"
0 to 10,0 to 10,,A (A = no increase to <2 fold increase),,A (A = no increase to <2 fold increase),A (A = no increase to <2 fold increase),A (A = no increase to <2 fold increase),,,,,,,Fc1ccccc1Cn1nc(-c2ccccn2)c(I)c1-c1ccccn1 [Compound I-53]
,,,,,,,,20 to 40,40 to 60,,A (A = no increase to <2 fold increase),,B (B = 2 to <5 fold increase),CC(C)(O)c1cnc(-c2cc(-c3ccon3)n(Cc3ccccc3F)n2)nc1O [Compound I-133]
0 to 10,0 to 10,C (C = 100 to <200),A (A = no increase to <2 fold increase),C (C = 100 to <200),B (B = 2 to <5 fold increase),A (A = no increase to <2 fold increase),A (A = no increase to <2 fold increase),,,,,,,Cc1cccc(-c2cc(-c3ccccn3)nn2Cc2ccccc2F)c1 [Compound I-22]
,,C (C = 100 to <200),A (A = no increase to <2 fold increase),C (C = 100 to <200),A (A = no increase to <2 fold increase),A (A = no increase to <2 fold increase),A (A = no increase to <2 fold increase),,,,,,,COc1ccccc1-c1cc(-c2ccccn2)nn1Cc1ccccc1F [Compound I-36]
,,,,,,,,60 to 80,60 to 80,,C (C = 5 to <10 fold increase),,D (D = 10 to <30 fold increase),Nc1nc(-c2cc(-c3ccon3)n(Cc3ccccc3F)n2)ncc1-c1cccnc1 [Compound I-127]
,,,,,,,,0 to 10,0 to 10,,A (A = no increase to <2 fold increase),,A (A = no increase to <2 fold increase),COC(=O)N(C)c1c(N)nc(-c2cc(-c3ccccn3)n(Cc3ccccc3F)n2)nc1N [Compound I-88]
,,,,,,,,60 to 80,20 to 40,,B (B = 2 to <5 fold increase),,D (D = 10 to <30 fold increase),"Cn1c(=O)[nH]c2nc(-c3cc(-c4ncco4)n(Cc4ccccc4F)n3)nc(N)c21 [Compound I-101, 6-amino-2-(1-(2-fluorobenzyl)-5-(oxazol-2-yl)-1H-pyrazol-3-yl)-7-methyl-7H-purin-8(9H)-one]"
,,,,,,,,,,,C (C = 5 to <10 fold increase),,D (D = 10 to <30 fold increase),Nc1nc(-c2cc(-c3ccon3)n(Cc3ccccc3F)n2)ncc1-c1ccsc1 [Compound I-121]
,,C (C = 100 to <200),A (A = no increase to <2 fold increase),C (C = 100 to <200),A (A = no increase to <2 fold increase),A (A = no increase to <2 fold increase),A (A = no increase to <2 fold increase),,,,,,,COc1ccccc1-c1cc(-c2ncccn2)nn1Cc1ccccc1F [Compound I-37]
,,,,,,,,,,,B (B = 2 to <5 fold increase),,D (D = 10 to <30 fold increase),Nc1nc(-c2cc(-c3ccon3)n(Cc3ccccc3F)n2)ncc1N1CCCC1 [Compound I-129]
,,C (C = 100 to <200),A (A = no increase to <2 fold increase),C (C = 100 to <200),A (A = no increase to <2 fold increase),A (A = no increase to <2 fold increase),A (A = no increase to <2 fold increase),,,,,,,COc1cccc(-c2cc(-c3ccccn3)nn2Cc2ccccc2F)c1 [Compound I-38]
,,C (C = 100 to <200),A (A = no increase to <2 fold increase),C (C = 100 to <200),A (A = no increase to <2 fold increase),A (A = no increase to <2 fold increase),A (A = no increase to <2 fold increase),,,,,,,Cc1ccccc1-c1cc(-c2ccccn2)nn1Cc1ccccc1F [Compound I-24]
,,,,,,,,,,,C (C = 5 to <10 fold increase),,C (C = 5 to <10 fold increase),Nc1nc(-c2cc(-c3ccon3)n(Cc3ccccc3F)n2)ncc1N1CCOCC1 [Compound I-139]
,,C (C = 100 to <200),A (A = no increase to <2 fold increase),C (C = 100 to <200),A (A = no increase to <2 fold increase),A (A = no increase to <2 fold increase),A (A = no increase to <2 fold increase),,,,,,,Fc1ccccc1Cn1nc(-c2ccccn2)cc1-c1csc2ccccc12 [Compound I-18]
,,,,,,,,,,,C (C = 5 to <10 fold increase),,D (D = 10 to <30 fold increase),N#Cc1cnc(-c2cc(-c3ccon3)n(Cc3ccccc3F)n2)nc1N [Compound I-130]
